The target in series [1] is Recombinant human JAK1 catalytic domain (Homo sapiens (Human), UniProt P23458). Put plainly: JAK1 inhibition assay. The series is classed as biochemical. The settings on record: semi-quantitative score. The method, boiled down:
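IC50 values come from dose-response series, with each point expressed as percent inhibition of cpm. Vehicle sets full activity and 10 μM staurosporine sets background. Incorporated radioactivity counted by scintillation after washing with 75 mM phosphoric acid.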

Series [2] has as its system JAK-STAT signalling in HeLa cells. Put plainly: JAK-STAT signalling assay (OSM-triggered pSTAT1(2)-luciferase reporter in HeLa cells). Type of series: cell-based. The note with it: Homo sapiens; HeLa cells, OSM-triggered pSTAT1(2)-luciferase reporter; read-out: STAT signalling EC50. The protocol: HeLa cells were maintained in Dulbecco's Modified Eagle's Medium (DMEM) containing 10% heat inactivated fetal calf serum, 100 U/mL penicillin and 100 μg/mL streptomycin. HeLa cells were used at 70% confluence for transfection. 20,000 cells in 87 μL cell culture medium were transiently transfected with 40 ng pSTAT1(2)-luciferase reporter (Panomics), 8 ng of LacZ reporter as internal control reporter and 52 ng of pBSK using 0.32 μL Jet-PEI (Polyplus) as transfection reagent per well in 96-well plate format. After overnight incubation at 37° C., 10% CO2, transfection medium was removed.
40 μL of cell lysate was used to read β-galactosidase activity by adding 180 μL βGal solution (30 μl ONPG 4 mg/mL+150 μL β-Galactosidase buffer (0.06 M Na2HPO4, 0.04 M NaH2PO4, 1 mM MgCl2)) for 20 min.
Luciferase activity was measured using 40 μL cell lysate plus 40 μl of Steadylite® as described by the manufacturer (Perkin Elmer), on the Envision (Perkin Elmer).
The positive and negative controls were used to calculate z’ and ‘percent inhibition’ (PIN) values.
PIN values were plotted for compounds tested in dose-response and EC50 values were derived.

Another series concerns MMP13 in SW1353 cells. Description: OSM/IL-1β signaling assay (MMP13 levels in SW1353 cells).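 Further: secreted MMP13 captured by antibody, activated with APMA and its activity read by fluorescence, inhibition scaled between vehicle-treated triggered wells (0%) and untriggered wells (100%).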 The series is classed as cell-based. The settings on record: Homo sapiens; SW1353 cells, OSM and IL-1β triggered, MMP13 levels 48 hours after triggering; read-out: MMP13 EC50.
A short description of series [3]: Microsomal stability, human liver microsomes. Type of series: in vitro ADME. The settings on record: percentage of compound remaining after 60 minutes, 3 μM compound. Here is the method:
(§1) 40 μL of deionised water was added to a well of a polypropylene Matrix 2D barcode labelled storage tube (Thermo Scientific) and pre-incubated at 37° C.
(§2) A co-factor containing MgCl2, glucose-6-phosphate and NADP+ was prepared in deionised water and placed on ice before use.
(§3) A final working solution containing liver microsomes (Xenotech of a species of interest (human, mouse, rat, dog), previously described G6PDH and co-factors was prepared and this mix was incubated for no longer than 20 minutes at room temperature.
(§4) 30 μL of the pre-heated compound dilution was added to 40 μL of pre-heated water in the Matrix tubes and 30 μL of the microsomal mix was added.
(§5) To measure percentage remaining of compound at time zero MeOH or ACN was added (1:1) to the well before adding the microsomal mix.
(§6) The samples which were not stopped are incubated at 37° C., 300 rpm and after 1 hour of incubation the reaction was stopped with MeOH or ACN (1:1).
(§7) After stopping the reaction the samples were mixed and placed on ice for 30 min to precipitate the proteins.
(§8) The samples were analyzed on LCMS with a flow rate of 1 mL/min. Solvent A was 15 mM ammonia and solvent B was methanol or acetonitrile, depending on the stop solution used. […] The percentage remaining after 1 hour incubation was calculated from time 0 and was calculated as the percentage remaining.
(§9) The data on microsomal stability are expressed as a percentage of the total amount of compound remaining after 60 minutes.
On the technique in general: Microsomes from liver hold many membrane-bound enzymes, among them those of drug oxidation.

Series [4] in a line: Microsomal stability, rat liver microsomes. The note with it: percentage of compound remaining after 60 minutes, 3 μM compound. Type of series: in vitro ADME. Here is the method: as §1, §2, §3, §4, §5, §6, §7, §8, §9
Series [5] addresses Recombinant human JAK2 catalytic domain (Homo sapiens (Human), UniProt O60674). Put plainly: JAK2 inhibition assay. The series is classed as biochemical. The settings on record: semi-quantitative score. The procedure, abridged:
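Activity was taken as vehicle cpm minus cpm with 10 μM staurosporine, and inhibition was expressed on that scale. Incubation was 90 min at 30 °C, followed by acid quench, phosphoric acid washes and Microscint counting. Compounds were tested as dose series to obtain IC50.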

Structures are written as SMILES.

Chain of Recombinant human JAK2 catalytic domain (O60674 808-1132): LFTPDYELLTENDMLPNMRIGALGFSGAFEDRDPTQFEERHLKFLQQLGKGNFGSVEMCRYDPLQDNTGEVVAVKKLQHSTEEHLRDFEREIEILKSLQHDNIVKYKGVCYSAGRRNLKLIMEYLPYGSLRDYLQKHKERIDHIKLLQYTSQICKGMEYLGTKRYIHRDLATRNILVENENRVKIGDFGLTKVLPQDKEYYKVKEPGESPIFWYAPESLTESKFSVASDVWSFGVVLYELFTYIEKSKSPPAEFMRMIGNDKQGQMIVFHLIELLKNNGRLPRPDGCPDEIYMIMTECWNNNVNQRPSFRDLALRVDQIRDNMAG
Chain of Recombinant human JAK1 catalytic domain (P23458 850-1154): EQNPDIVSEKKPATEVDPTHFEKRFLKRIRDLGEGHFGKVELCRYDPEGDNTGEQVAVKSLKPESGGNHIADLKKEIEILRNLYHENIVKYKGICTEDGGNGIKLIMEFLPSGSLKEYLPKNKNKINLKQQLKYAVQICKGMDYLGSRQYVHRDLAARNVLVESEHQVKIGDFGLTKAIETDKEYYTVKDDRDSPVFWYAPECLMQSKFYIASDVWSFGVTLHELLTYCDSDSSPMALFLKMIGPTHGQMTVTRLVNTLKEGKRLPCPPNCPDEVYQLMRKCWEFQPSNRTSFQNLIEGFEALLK

On to `NC(=O)c1ccc(NCc2ccc(-c3cccc4nc(NC(=O)C5CC5)nn34)cc2)cc1` [Compound 227, 4-{4-[2-(Cyclopropanecarbonyl-amino)-[1,2,4]triazolo[1,5-a]pyridin-5-yl]-benzylamino}-benzamide], for which the IC50 (as a rule, the concentration that inhibits the measured activity by half) in series [1] is under 100 nM. Besides, the EC50 (commonly the concentration giving half of the maximal effect) was over 1000 nM in series [2] and 501 to 1000 nM with MMP13 in SW1353 cells. Further, in series [3], the “Microsomal Stability Human (%)” value is reported as “** (** 26-50)”. Besides, the “Microsomal Stability Rat (%)” value in series [4] is listed as “**** (**** 76-100)”.
As to `O=C(Nc1nc2cccc(-c3ccc(NCc4cccnc4)cc3)n2n1)C1CC1` [Compound 182, N-(5-(4-(pyridin-3-ylmethylamino)phenyl)-[1,2,4]triazolo[1,5-a]pyridin-2-yl)cyclopropanecarboxamide], the IC50 in series [1] was under 100 nM. Further, the EC50 (in series [2]; in the series on MMP13 in SW1353 cells) was over 1000 nM in each case. Also, the “Microsomal Stability Human (%)” value in series [3] was “* (* 0-25)”. Further, in series [4], the “Microsomal Stability Rat (%)” value is “* (* 0-25)”.
Turning to `O=C(Nc1nc2cccc(-c3ccc(C(=O)N4CCN(c5cccc(Cl)c5)CC4)cc3)n2n1)C1CC1` [Compound 113], the IC50 in series [1] was under 100 nM. Moreover, the EC50 (in series [2]; in the series with MMP13 in SW1353 cells) was over 1000 nM each time. Moreover, the “Microsomal Stability Human (%)” value in series [3] is reported as “** (** 26-50)”. In addition, the “Microsomal Stability Rat (%)” value in series [4] is “*** (*** 51-75)”.
`CN(Cc1ccccc1)c1ccc(-c2cccc3nc(NC(=O)C4CC4)nn23)cc1` [Compound 157, N-(5-(4-(benzyl(methyl)amino)phenyl)-[1,2,4]triazolo[1,5-a]pyridin-2-yl)cyclopropanecarboxamide]: the IC50 in series [1] was under 100 nM. Besides, the EC50 in series [2] was over 1000 nM. In addition, in series [3], the “Microsomal Stability Human (%)” value is reported as “* (* 0-25)”. The “Microsomal Stability Rat (%)” value in series [4] was “* (* 0-25)”.
For the compound `O=C(NCCc1cccnc1)c1ccc(-c2cccc3nc(NC(=O)C4CC4)nn23)cc1` [Compound 124, 4-(2-(cyclopropanecarboxamido)-[1,2,4]triazolo[1,5-a]pyridin-5-yl)-N-(2-(pyridin-3-yl)ethyl)benzamide], the IC50 in series [1] was under 100 nM. The EC50 (in series [2]; in the series with MMP13 in SW1353 cells) was over 1000 nM throughout. Moreover, the “Microsomal Stability Human (%)” value in series [3] is given as “* (* 0-25)”. Besides, the “Microsomal Stability Rat (%)” value in series [4] is reported as “* (* 0-25)”.
For the compound `O=C(Nc1nc2cccc(-c3ccc(NS(=O)(=O)CCOc4ccccc4)cc3)n2n1)C1CC1` [Compound 122, N-(5-(4-(2-phenoxyethylsulfonamido)phenyl)-[1,2,4]triazolo[1,5-a]pyridin-2-yl)cyclopropanecarboxamide], the IC50 in series [1] was under 100 nM. Besides, the EC50 (in series [2]; in the series on MMP13 in SW1353 cells) was over 1000 nM throughout. For the same compound, the “Microsomal Stability Human (%)” value in series [3] is listed as “* (* 0-25)”. Moreover, the “Microsomal Stability Rat (%)” value in series [4] is given as “* (* 0-25)”.
For `O=C(Nc1nc2cccc(-c3ccc(OCc4ccc(-c5cn[nH]c5)nc4)cc3)n2n1)C1CC1` [Compound 166], the IC50 in series [1] was under 100 nM. Moreover, the EC50 (in series [2]; in the series on MMP13 in SW1353 cells) was over 1000 nM throughout. The “Microsomal Stability Human (%)” value in series [3] is reported as “*** (*** 51-75)”. Moreover, the “Microsomal Stability Rat (%)” value in series [4] was “* (* 0-25)”.
For `Cn1cc(-c2ccc(COc3ccc(-c4cccc5nc(NC(=O)C6CC6)nn45)cc3)cn2)cn1` [Compound 178], the IC50 in series [1] is under 100 nM. In addition, the EC50 (in series [2]; with MMP13 in SW1353 cells) was over 1000 nM each time. In series [3], the “Microsomal Stability Human (%)” value was “* (* 0-25)”. In series [4], the “Microsomal Stability Rat (%)” value was “** (** 26-50)”.
Consider `O=C(Nc1cccnc1)c1ccc(-c2cccc3nc(NC(=O)C4CC4)nn23)cc1` [Compound 206, 4-[2-(Cyclopropanecarbonyl-amino)-[1,2,4]triazolo[1,5-a]pyridin-5-yl]-N-pyridin-3-yl-benzamide], for which the IC50 in series [1] was under 100 nM; in series [5], 101 to 500 nM. Besides, in series [2], the EC50 was over 1000 nM. Moreover, the “Microsomal Stability Human (%)” value in series [3] was “**** (**** 76-100)”. In series [4], the “Microsomal Stability Rat (%)” value is listed as “*** (*** 51-75)”.
Regarding `O=C(Nc1ccc(N2CCOCC2)nc1)c1ccc(-c2cccc3nc(NC(=O)C4CC4)nn23)cc1` [Compound 204, 4-[2-(Cyclopropanecarbonyl-amino)-[1,2,4]triazolo[1,5-a]pyridin-5-yl]-N-(6-morpholin-4-yl-pyridin-3-yl)-benzamide], the IC50 in series [1] was under 100 nM. In series [2], the EC50 was over 1000 nM. For the same compound, the “Microsomal Stability Human (%)” value in series [3] was “* (* 0-25)”. Further, the “Microsomal Stability Rat (%)” value in series [4] is on record as “* (* 0-25)”.
`O=C(NC1CC1)c1ccc(-c2cccc3nc(NC(=O)C4CC4)nn23)cc1` [Compound 11, 4-(2-(cyclopropanecarboxamido)-[1,2,4]triazolo[1,5-a]pyridin-5-yl)-N-cyclopropylbenzamide]: in series [1], the IC50 fell in the range of 101 to 500 nM. For the same compound, in series [3], the “Microsomal Stability Human (%)” value was “**** (**** 76-100)”. Besides, the “Microsomal Stability Rat (%)” value in series [4] is given as “**** (**** 76-100)”.
Consider `O=C(Nc1nc2cccc(-c3ccc(C(=O)N4CCCC(O)C4)cc3)n2n1)C1CC1` (stereo not drawn) [Compound 270, Cyclopropanecarboxylic acid {5-[4-(3-hydroxy-piperidine-1-carbonyl)-phenyl]-[1,2,4]triazolo[1,5-a]pyridin-2-yl)-amide], for which the IC50 in series [1] was under 100 nM; in series [5], 101 to 500 nM. For the same compound, the EC50 (in series [2]; with MMP13 in SW1353 cells) was over 1000 nM throughout.
As to `COc1ccc(NC(=O)c2ccc(-c3cccc4nc(NC(=O)C5CC5)nn34)cc2)cn1` [Compound 203, 4-[2-(Cyclopropanecarbonyl-amino)-[1,2,4]triazolo[1,5-a]pyridin-5-yl]-N-(6-methoxy-pyridin-3-yl)-benzamide], the figures for the IC50 in series [1] and in series [5] were under 100 nM and 101 to 500 nM, respectively. For the same compound, the half-maximal effective concentration (EC50) in series [2] was over 1000 nM. Also, the “Microsomal Stability Human (%)” value in series [3] is recorded as “* (* 0-25)”. The “Microsomal Stability Rat (%)” value in series [4] is listed as “*** (*** 51-75)”.
Take `NC(=O)C1CCCCN1C(=O)c1ccc(-c2cccc3nc(NC(=O)C4CC4)nn23)cc1` (stereo not drawn) [Compound 275, 1-{4-[2-(Cyclopropanecarbonyl-amino)-[1,2,4]triazolo[1,5-a]pyridin-5-yl]-benzoyl}-piperidine-2-carboxylic acid amide]: the IC50 in series [1] is under 100 nM; in series [5], 101 to 500 nM. In addition, the EC50 (in series [2]; in the series on MMP13 in SW1353 cells) was over 1000 nM throughout.
Regarding `O=C(Nc1nc[nH]n1)c1ccc(-c2cccc3nc(NC(=O)C4CC4)nn23)cc1` [Compound 331, 4-[2-(Cyclopropanecarbonyl-amino)-[1,2,4]triazolo[1,5-a]pyridin-5-yl]-N-(1H-1,2,4-triazol-3-yl)-benzamide], the IC50 in series [1] is 101 to 500 nM; in series [5] it was under 100 nM. The “Microsomal Stability Human (%)” value in series [3] is recorded as “* (* 0-25)”. Also, the “Microsomal Stability Rat (%)” value in series [4] is on record as “* (* 0-25)”.
Turning to `O=C(Nc1ccc(-c2cccc3nc(NC(=O)C4CC4)nn23)cc1)c1ccc(C(F)(F)F)cc1` [Compound 22, N-(4-(2-(cyclopropanecarboxamido)-[1,2,4]triazolo[1,5-a]pyridin-5-yl)phenyl)-4-(trifluoromethyl)benzamide], the IC50 in series [1] and in series [5] was 101 to 500 nM throughout. Moreover, the EC50 (in series [2]; with MMP13 in SW1353 cells) was over 1000 nM throughout.

Values taken from US10206907B2, “Compounds useful for the treatment of degenerative and inflammatory diseases” (GALAPAGOS NV, priority 2008, dated 2019).
